Earlier results as cited in patent US20240207454A1, “NEURO-BEHAVIORAL ASSAY FOR PHYSIOLOGICAL EVALUATION OF WATER-SOLUBLE ANESTHETICS” (Northeastern University, priority 2022, published 2024).
Like-named read-outs stand apart in the source and are kept apart here.

Key:
[1] = target: T1, GABAA receptor subtype α1β2γ2 (Homo sapiens, UniProt P14867+P18507+P47870); settings: human embryonic kidney 293 cells expressing α1β2γ2; cited from earlier work
T1 construct: host or cells: human embryonic kidney 293 cells (heterologous expression)

red garra (Garra rufa) = settings: G. rufa, cited from earlier work

T1 sequence (P14867 28-456): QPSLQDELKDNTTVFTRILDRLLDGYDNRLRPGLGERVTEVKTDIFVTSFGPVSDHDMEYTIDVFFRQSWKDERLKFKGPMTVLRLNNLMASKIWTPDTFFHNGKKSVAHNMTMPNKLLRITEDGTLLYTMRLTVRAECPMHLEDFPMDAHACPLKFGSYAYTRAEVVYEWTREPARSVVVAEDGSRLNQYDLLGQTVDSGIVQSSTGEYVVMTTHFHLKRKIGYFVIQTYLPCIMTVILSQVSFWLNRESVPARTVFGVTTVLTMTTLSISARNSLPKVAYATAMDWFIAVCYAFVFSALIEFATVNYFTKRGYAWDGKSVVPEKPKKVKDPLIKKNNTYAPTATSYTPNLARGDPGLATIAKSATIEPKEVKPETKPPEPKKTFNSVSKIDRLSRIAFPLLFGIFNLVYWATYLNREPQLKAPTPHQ
T1 sequence (P47870 25-512 limits assumed): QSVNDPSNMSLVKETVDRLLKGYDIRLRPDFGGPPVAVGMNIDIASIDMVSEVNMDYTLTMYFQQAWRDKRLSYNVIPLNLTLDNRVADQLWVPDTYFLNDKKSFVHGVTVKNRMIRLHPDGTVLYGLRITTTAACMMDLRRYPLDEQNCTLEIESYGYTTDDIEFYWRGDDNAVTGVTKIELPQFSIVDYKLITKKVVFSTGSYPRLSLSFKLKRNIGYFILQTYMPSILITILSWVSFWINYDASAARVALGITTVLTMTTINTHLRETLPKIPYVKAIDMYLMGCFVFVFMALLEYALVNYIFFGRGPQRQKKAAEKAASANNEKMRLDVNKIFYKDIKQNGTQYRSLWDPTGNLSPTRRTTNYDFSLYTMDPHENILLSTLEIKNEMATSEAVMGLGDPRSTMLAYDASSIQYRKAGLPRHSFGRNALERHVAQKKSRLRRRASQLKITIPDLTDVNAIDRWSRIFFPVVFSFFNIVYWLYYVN
T1 sequence (P18507 40-475): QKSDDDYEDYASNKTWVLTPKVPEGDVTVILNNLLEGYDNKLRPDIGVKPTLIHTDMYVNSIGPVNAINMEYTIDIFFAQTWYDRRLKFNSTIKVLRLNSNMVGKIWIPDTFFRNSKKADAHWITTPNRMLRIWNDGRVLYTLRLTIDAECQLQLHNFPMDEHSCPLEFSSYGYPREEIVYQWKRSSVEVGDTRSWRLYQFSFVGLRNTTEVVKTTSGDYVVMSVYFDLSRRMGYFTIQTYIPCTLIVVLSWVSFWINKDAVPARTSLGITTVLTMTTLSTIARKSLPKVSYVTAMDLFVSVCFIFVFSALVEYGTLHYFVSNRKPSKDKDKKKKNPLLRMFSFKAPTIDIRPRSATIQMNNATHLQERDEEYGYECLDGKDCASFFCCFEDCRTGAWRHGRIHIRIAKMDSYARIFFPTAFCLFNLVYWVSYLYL

C=CCc1ccc(O)c(OC)c1 [eugenol]
Effect on GABA-induced current [1]: inhibits GABAA current in a reversible, dose-dependent manner | Time to total loss of equilibrium and movement and absence of reaction to external stimuli (red garra (Garra rufa); 25 μL/L eugenol): approximately 3 min | Time to total loss of equilibrium and movement and absence of reaction to external stimuli (red garra (Garra rufa); 50 μL/L eugenol): ~1.5 min
